Patent US20110294836A1, “ARYL GPR119 AGONISTS AND USES THEREOF” (METABOLEX, INC., priority 2008, published 2011)

target: T1, GPR119 (Homo sapiens, UniProt Q8TDV5); assay: Stimulation of cAMP in CHO cell line stably expressing GPR119 (HTRF cAMP assay); assay type: cell-based; details: GPR119 stably expressing CHO cells, 30 minutes, relative to maximal activity (100%) of 5-Ethyl-2-{4-[4-(4-tetrazol-1-yl-phenoxymethyl)-thiazol-2-yl]-piperidin-1-yl}-pyrimidine
T1 construct: expressed in transfected cells
T1 sequence (Q8TDV5 1-335): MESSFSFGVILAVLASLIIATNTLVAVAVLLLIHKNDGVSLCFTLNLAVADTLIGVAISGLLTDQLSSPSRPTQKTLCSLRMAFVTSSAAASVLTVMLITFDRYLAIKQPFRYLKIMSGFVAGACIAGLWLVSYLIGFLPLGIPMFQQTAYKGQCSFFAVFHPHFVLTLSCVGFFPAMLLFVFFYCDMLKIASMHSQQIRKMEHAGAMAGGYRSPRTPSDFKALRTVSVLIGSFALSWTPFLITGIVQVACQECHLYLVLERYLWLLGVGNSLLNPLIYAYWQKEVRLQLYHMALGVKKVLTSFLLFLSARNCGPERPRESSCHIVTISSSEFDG
Method: This assay was developed using a stable cell line expressing GPR119, generated as follows. GPR119 (co-pending, co-owned patent application U.S. Ser. No. 11/964,461) was cloned into Gateway pDEST 40vector (Invitrogen), using the Gateway cloning system (invitrogen) according to the manufacturer's instructions. A stable cell line was generated by transfecting a 10 cm plate of CHO cells (source) with Bug of this construct using Transit-CHO transfection kit (Minis). CHO cells were plated the day prior to transfection at a density of 3,000,000 cells/plate. Clones were selected using the antibiotic G418 at 500 ug/ml. 23 clones were picked and assayed for the expression of the receptor by measuring changes in intracellular cAMP levels in response to a known GPR119 agonist.
To measure cAMP activity in response to GPR119 agonist, the clones were plated in 96 well plates at 17500 cells per well. On the day after plating, cells were incubated with the GPR119 agonist at 10 μM for 30 minutes in Ham's F12 Media (Gibco) with 0.04% DMSO. cAMP was measured using the cAMP dynamic kit from Cis Bio (Bedford, Mass.) according to the manufacturer's instructions. Briefly, cells were lysed, and cAMP levels determined by competitive immunoassay using D2 labeled cAMP, and europium cryptate tagged anti cAMP antibody. When in close proximity, the D2 and europium cryptate undergo fluorescence resonance energy transfer (FRET), which is measured as a fluorescence ratio (665 nm/620 nm). Unlabelled cAMP in the cell lysate competed with the D2 labeled cAMP for the europium crypate labeled antibody. The resulting decrease in FRET signal corresponded to intracellular cAMP levels. Fluorescence was read on a BMG Labtech PHERAstar, software version 1.50.
The clone with the greatest response to GPR119 agonist was selected for the screening assay.
Compounds were dissolved in 100% DMSO to a concentration of […] to provide stock solutions. To determine activity against GPR119, compounds were incubated with GPR119 stably expressing cells (described above), at 6-8 concentrations ranging from 0.00003 to 10 micromolar, in 96 well plates, in 50 ul of Ham's F12 media for 30 minutes. Cells were plated at 17500 cells per well 1 day before running the assay. All compounds were also screened against the parental CHO cells. cAMP was measured using the cAMP dynamic kit from Cis Bio (Bedford, Mass.), according to the manufacturer's instructions. Briefly, cells were lysed and cAMP levels determined by competitive immunoassay using D2 labeled cAMP, and europium cryptate tagged anti cAMP antibody. When in close proximity, the D2 and europium cryptate undergo fluorescence resonance energy transfer (FRET), which is measured as a fluorescence ratio (665 nm/620 nm). Unlabelled cAMP in the cell lysate competed with the D2 labeled cAMP for the europium crypate labeled antibody. The resulting decrease in FRET signal corresponded to intracellular cAMP levels.
To determine percent activity for a tested compound, the FRET signal value obtained at a particular concentration are compared to the Maximal FRET signal value obtained for 5-Ethyl-2-{4-[4-(4-tetrazol-1-yl-phenoxymethyl)-thiazol-2-yl]-piperidin-1-yl}-pyrimidine. The maximal activity of 5-Ethyl-2-{4-[4-(4-tetrazol-1-yl-phenoxymethyl)-thiazol-2-yl]-piperidin-1-yl}-pyrimidine is designated as 100% activity. Typically, the concentration of 5-Ethyl-2-{4-[4-(4-tetrazol-1-yl-phenoxymethyl)-thiazol-2-yl]-piperidin-1-yl}-pyrimidine in the assay was approximately 0.1 μM. The synthesis of 5-Ethyl-2-{4-[4-(4-tetrazol-1-yl-phenoxymethyl)-thiazol-2-yl]-piperidin-1-yl}-pyrimidine is disclosed in co-owned pending U.S. patent application Ser. No. 11/964,461, herein incorporated by reference. Activities of compounds in Table 1 below are expressed as % activity at 3 μM compound compared to the maximal activity of 5-Ethyl-2-{4-[4-(4-tetrazol-1-yl-phenoxymethyl)-thiazol-2-yl]-piperidin-1-yl}-pyrimidine at 3 μM.

Going from `CCc1cnc(N2CCC(c3cccc(COc4ccc(-n5cnnn5)cc4F)n3)CC2)nc1` [Example 5, 5-ethyl-2-(4-(6-((2-fluoro-4-(1H-tetrazol-1-yl)phenoxy)methyl)pyridin-2-yl)piperidin-1-yl)pyrimidine] to `Fc1cc(-n2cnnn2)ccc1OCc1cccc(C2CCN(c3ncc(C(F)(F)F)cn3)CC2)n1` [Example 6, 2-(4-(6-((2-fluoro-4-(1H-tetrazol-1-yl)phenoxy)methyl)pyridin-2-yl)piperidin-1-yl)-5-(trifluoromethyl)pyrimidine], the “% Activity at 3 μM Compound” value falls from 73% to 63%.

Going from `CC(C)(C)OC(=O)N1CCC(c2cc(COc3ccc(-n4cnnn4)cc3F)ccn2)CC1` [Example 14, tert-Butyl 4-(4-((2-fluoro-4-(1H-tetrazol-1-yl)phenoxy)methyl)pyridin-2-yl)piperidine-1-carboxylate] to `CC(C)(C)OC(=O)N1CCC(c2cccc(COc3ccc(-n4cnnn4)cc3F)n2)CC1` [Example 4, tert-Butyl 4-(6-((2-fluoro-4-(1H-tetrazol-1-yl)phenoxy)methyl)pyridin-2-yl)piperidine-1-carboxylate], the “% Activity at 3 μM Compound” value falls from 73% to 61%.

Compared with `CC(C)(C)OC(=O)N1CCC(c2nccc(COc3ccc(-n4cnnn4)cc3F)n2)CC1` [Example 7, tert-Butyl 4-(4-((2-fluoro-4-(1H-tetrazol-1-yl)phenoxy)methyl)pyrimidin-2-yl)piperidine-1-carboxylate], `CC(C)(C)OC(=O)N1CCC(c2cccc(COc3ccc(S(C)(=O)=O)cc3F)n2)CC1` [Example 2, tert-Butyl 4-(6-((2-fluoro-4-(methylsulfonyl)phenoxy)methyl)pyridin-2-yl)piperidine-1-carboxylate] is lower in “% Activity at 3 μM Compound” value: 70% for the first, 59% for the second.

Going from `CCc1cnc(N2CCC(c3cccc(OCc4ccc(S(C)(=O)=O)cc4)c3)CC2)nc1` [Example 10, 5-ethyl-2-(4-(3-(4-(methylsulfonyl)benzyloxy)phenyl)piperidin-1-yl)pyrimidine] to `CC(C)(C)OC(=O)N1CCC(c2cccc(OCc3ccc(S(C)(=O)=O)cc3)c2)CC1` [Example 9, tert-Butyl 4-(3-(4-(methylsulfonyl)benzyloxy)phenyl)piperidine-1-carboxylate], the “% Activity at 3 μM Compound” value rises from 59% to 61%.

In the case of `CC(C)c1noc(C(=O)N2CCC(c3cccc(COc4ccc(S(C)(=O)=O)cc4F)n3)CC2)n1` [Example 13, (4-(6-((2-fluoro-4-(methylsulfonyl)phenoxy)methyl)pyridin-2-yl)piperidin-1-yl)(3-isopropyl-1,2,4-oxadiazol-5-yl)methanone], the “% Activity at 3 μM Compound” value is reported as 33%.
